Test results taken from publication PMC5218480 (PLoS ONE, 2017).

System: MV-4-11 cells
Assay: Gene expression microarray analysis (Affymetrix PrimeView) and GSEA
Type: cell-based, human
Design: RFU PODN (11730768_x_at) / Fold change /veh PODN (11730768_x_at) / RFU LINC00158 (11744669_a_at) / Fold change /veh LINC00158 (11744669_a_at) / RFU DUSP10 (11751237_a_at) / Fold change /veh DUSP10 (11751237_a_at) / RFU ID3 (11757404_x_at) / Fold change /veh ID3 (11757404_x_at) / RFU PLEKHG5 (11737974_s_at) / Fold change /veh PLEKHG5 (11737974_s_at) / RFU LRRC4B (11730491_at) / Fold change /veh LRRC4B (11730491_at) / RFU GIMAP4 (11747438_a_at) / Fold change /veh GIMAP4 (11747438_a_at) / RFU KRT8 (11758183_x_at) / Fold change /veh KRT8 (11758183_x_at) / RFU CNN1 (11734310_a_at) / Fold change /veh CNN1 (11734310_a_at) / RFU VPS37D (11726825_at) / Fold change /veh VPS37D (11726825_at) / RFU C10orf10 (11716522_x_at) / Fold change /veh C10orf10 (11716522_x_at) / RFU KIR2DL2 /// KIR2DL4 /// KIR2DL5A /// KIR2DL5B /// KIR2DS1 /// KIR2DS2 /// KIR2DS3 /// KIR2DS4 /// KIR3DL3 /// KIR3DL3 /// KIR3DS1 (11738374_at) / Fold change /veh KIR2DL2 /// KIR2DL4 /// KIR2DL5A /// KIR2DL5B /// KIR2DS1 /// KIR2DS2 /// KIR2DS3 /// KIR2DS4 /// KIR3DL3 /// KIR3DL3 /// KIR3DS1 (11738374_at) / RFU C1QL1 (11718748_at) / Fold change /veh C1QL1 (11718748_at) / RFU TMPRSS4 (11747572_a_at) / Fold change /veh TMPRSS4 (11747572_a_at) / RFU HAMP (11756126_x_at) / Fold change /veh HAMP (11756126_x_at) / RFU RNFT2 (11725882_a_at) / Fold change /veh RNFT2 (11725882_a_at) / RFU NR4A2 (11747474_a_at) / Fold change /veh NR4A2 (11747474_a_at) / RFU ABCC12 (11746883_a_at) / Fold change /veh ABCC12 (11746883_a_at) / RFU TMEM136 (11760407_x_at) / Fold change /veh TMEM136 (11760407_x_at) / RFU CLDN22 /// WWC2 (11732394_at) / Fold change /veh CLDN22 /// WWC2 (11732394_at) / RFU HLA-DPB1 (11760878_x_at) / Fold change /veh HLA-DPB1 (11760878_x_at) / RFU SPINT1 (11716480_a_at) / Fold change /veh SPINT1 (11716480_a_at) / RFU GAP43 (11754022_s_at) / Fold change /veh GAP43 (11754022_s_at) / RFU A4GNT (11735810_at) / Fold change /veh A4GNT (11735810_at) / RFU PRB3 (11715151_x_at) / Fold change /veh PRB3 (11715151_x_at) / RFU TUBB4B (11761932_at) / Fold change /veh TUBB4B (11761932_at) / RFU CAPN14 (11732068_a_at) / Fold change /veh CAPN14 (11732068_a_at) / RFU TMCC2 (11721928_a_at) / Fold change /veh TMCC2 (11721928_a_at) / RFU IRGQ (11745062_a_at) / Fold change /veh IRGQ (11745062_a_at) / RFU FAM174B (11720279_a_at) / Fold change /veh FAM174B (11720279_a_at) / RFU TMPRSS4 (11748680_a_at) / Fold change /veh TMPRSS4 (11748680_a_at) / RFU FAM212B (11763350_a_at) / Fold change /veh FAM212B (11763350_a_at) / RFU PLEKHG5 (11743358_a_at) / Fold change /veh PLEKHG5 (11743358_a_at) / RFU ZSCAN30 (11745921_a_at) / Fold change /veh ZSCAN30 (11745921_a_at) / RFU CMKLR1 (11741424_a_at) / Fold change /veh CMKLR1 (11741424_a_at) / RFU LOC101060620 /// MAPK8IP1 (11723275_at) / Fold change /veh LOC101060620 /// MAPK8IP1 (11723275_at) / RFU SPTSSB (11747773_x_at) / Fold change /veh SPTSSB (11747773_x_at) / RFU PRSS12 (11739890_at) / Fold change /veh PRSS12 (11739890_at) / RFU BIN1 (11741810_x_at) / Fold change /veh BIN1 (11741810_x_at) / RFU WNT11 (11732464_a_at) / Fold change /veh WNT11 (11732464_a_at) / RFU C10orf10 (11716521_a_at) / Fold change /veh C10orf10 (11716521_a_at) / RFU C5orf56 (11738089_at) / Fold change /veh C5orf56 (11738089_at) / RFU CYB561 (11721691_x_at) / Fold change /veh CYB561 (11721691_x_at) / RFU ANKRD19P (11752326_a_at) / Fold change /veh ANKRD19P (11752326_a_at) / RFU OR2T12 /// OR2T33 /// OR2T8 (11738714_s_at) / Fold change /veh OR2T12 /// OR2T33 /// OR2T8 (11738714_s_at) / RFU VCAN (11748164_a_at) / Fold change /veh VCAN (11748164_a_at) / RFU JSRP1 (11732532_at) / Fold change /veh JSRP1 (11732532_at) / RFU KRTAP10-11 (11738290_x_at) / Fold change /veh KRTAP10-11 (11738290_x_at) / RFU MYO3A (11730013_a_at) / Fold change /veh MYO3A (11730013_a_at) / RFU EBF3 (11725865_a_at) / Fold change /veh EBF3 (11725865_a_at) / RFU CAMK2N1 (11719241_x_at) / Fold change /veh CAMK2N1 (11719241_x_at) / RFU C5orf56 (11738088_a_at) / Fold change /veh C5orf56 (11738088_a_at) / RFU OLFML3 (11715873_a_at) / Fold change /veh OLFML3 (11715873_a_at) / RFU LOC100653217 /// NTM (11731650_a_at) / Fold change /veh LOC100653217 /// NTM (11731650_a_at) / RFU MAPK11 (11762145_a_at) / Fold change /veh MAPK11 (11762145_a_at) / RFU FIZ1 (11724087_x_at) / Fold change /veh FIZ1 (11724087_x_at) / RFU OASL (11726364_x_at) / Fold change /veh OASL (11726364_x_at) / RFU SOX15 (11748057_x_at) / Fold change /veh SOX15 (11748057_x_at) / RFU CD79A (11719716_a_at) / Fold change /veh CD79A (11719716_a_at) / RFU HIST1H1D (11736915_at) / Fold change /veh HIST1H1D (11736915_at) / RFU CASKIN2 (11723855_a_at) / Fold change /veh CASKIN2 (11723855_a_at) / RFU LOC730098 (11760151_x_at) / Fold change /veh LOC730098 (11760151_x_at) / RFU OR4N2 (11742367_at) / Fold change /veh OR4N2 (11742367_at) / RFU PRRT2 (11749266_a_at) / Fold change /veh PRRT2 (11749266_a_at) / RFU SNX32 (11753110_a_at) / Fold change /veh SNX32 (11753110_a_at) / RFU CDHR5 (11726645_a_at) / Fold change /veh CDHR5 (11726645_a_at) / RFU RCAN1 (11760418_a_at) / Fold change /veh RCAN1 (11760418_a_at) / RFU FAM167A (11723789_a_at) / Fold change /veh FAM167A (11723789_a_at) / RFU FAM26E (11764081_at) / Fold change /veh FAM26E (11764081_at) / RFU ISYNA1 (11749810_s_at) / Fold change /veh ISYNA1 (11749810_s_at) / RFU ACY1 (11761880_at) / Fold change /veh ACY1 (11761880_at) / RFU 11764098_at / Fold change /veh 11764098_at / RFU SAMD14 (11745864_x_at) / Fold change /veh SAMD14 (11745864_x_at) / RFU NPB (11741838_a_at) / Fold change /veh NPB (11741838_a_at) / RFU TMPRSS6 (11731388_a_at) / Fold change /veh TMPRSS6 (11731388_a_at) / RFU KRTAP10-2 (11738614_at) / Fold change /veh KRTAP10-2 (11738614_at) / RFU ARHGAP8 /// PRR5-ARHGAP8 (11727945_x_at) / Fold change /veh ARHGAP8 /// PRR5-ARHGAP8 (11727945_x_at) / RFU KRTAP5-7 /// NADSYN1 (11734609_at) / Fold change /veh KRTAP5-7 /// NADSYN1 (11734609_at) / RFU RASL12 (11751679_a_at) / Fold change /veh RASL12 (11751679_a_at) / RFU CDKN2B (11736163_a_at) / Fold change /veh CDKN2B (11736163_a_at) / RFU PRF1 (11729649_at) / Fold change /veh PRF1 (11729649_at) / RFU, ZNF638 /// ZNF638-IT1 / Fold change vs veh, ZNF638 /// ZNF638-IT1 / RFU, PANK3 / Fold change vs veh, PANK3 / RFU, SH3YL1 / Fold change vs veh, SH3YL1 / RFU, ZEB2 / Fold change vs veh, ZEB2 / RFU, NRIP1 / Fold change vs veh, NRIP1 / RFU, PTTG1IP / Fold change vs veh, PTTG1IP / RFU, CAPN2 / Fold change vs veh, CAPN2 / RFU, MED14 / Fold change vs veh, MED14 / RFU, SNORA58 / Fold change vs veh, SNORA58 / RFU, C1orf63 / Fold change vs veh, C1orf63 / RFU, LRRFIP1 / Fold change vs veh, LRRFIP1 / RFU, NDUFAF7 / Fold change vs veh, NDUFAF7 / RFU, SLC12A2 / Fold change vs veh, SLC12A2 / RFU, IBTK / Fold change vs veh, IBTK / RFU, ESF1 / Fold change vs veh, ESF1 / Fold change vs veh, TMEM50B / RFU, TAOK1 / Fold change vs veh, TAOK1 / RFU, ACBD3 / Fold change vs veh, ACBD3 / RFU, TMA16 / Fold change vs veh, TMA16 / RFU, RWDD3 / Fold change vs veh, RWDD3 / RFU, BCAT1 / Fold change vs veh, BCAT1 / RFU, EDEM3 / Fold change vs veh, EDEM3 / RFU, TMEM33 / Fold change vs veh, TMEM33 / RFU, WDR75 / Fold change vs veh, WDR75 / RFU, AHCTF1 / Fold change vs veh, AHCTF1 / RFU, TFRC / Fold change vs veh, TFRC / RFU, ZDHHC17 / Fold change vs veh, ZDHHC17 / RFU, NOM1 / Fold change vs veh, NOM1 / RFU, ARL8B / Fold change vs veh, ARL8B / RFU, ZBTB11 / Fold change vs veh, ZBTB11 / RFU, TAMM41 / Fold change vs veh, TAMM41 / RFU, KIAA1704 /// LOC100996395 / Fold change vs veh, KIAA1704 /// LOC100996395 / RFU, ING1 / Fold change vs veh, ING1 / RFU, TRMT61B / Fold change vs veh, TRMT61B / RFU, FUBP3 / Fold change vs veh, FUBP3 / RFU, TP53 / Fold change vs veh, TP53 / RFU, TNKS2 / Fold change vs veh, TNKS2 / RFU, ZFP14 / Fold change vs veh, ZFP14 / RFU, ACTR2 / Fold change vs veh, ACTR2 / RFU, PPP3R1 / Fold change vs veh, PPP3R1 / RFU, PIK3R1 / Fold change vs veh, PIK3R1 / RFU, HNRNPA1 / Fold change vs veh, HNRNPA1 / RFU, RNF170 / Fold change vs veh, RNF170 / RFU, ZNF28 / Fold change vs veh, ZNF28 / RFU, RNGTT / Fold change vs veh, RNGTT / RFU, OGT / Fold change vs veh, OGT / RFU, BRD1 / Fold change vs veh, BRD1 / RFU, MARS / Fold change vs veh, MARS / RFU, ZNF655 / Fold change vs veh, ZNF655 / RFU, FAHD1 / Fold change vs veh, FAHD1 / RFU, BDP1 / Fold change vs veh, BDP1 / RFU, LRRCC1 / Fold change vs veh, LRRCC1 / RFU, ARID1A / Fold change vs veh, ARID1A / RFU, ZNF146 / Fold change vs veh, ZNF146 / RFU, ZNF330 / Fold change vs veh, ZNF330 / RFU, GPN3 / Fold change vs veh, GPN3 / RFU, C9orf123 / Fold change vs veh, C9orf123 / RFU, N4BP2L2 / Fold change vs veh, N4BP2L2 / RFU, ARFIP1 / Fold change vs veh, ARFIP1 / RFU, FAM179B / Fold change vs veh, FAM179B / RFU, BCL10 / Fold change vs veh, BCL10 / RFU, UHRF1BP1L / Fold change vs veh, UHRF1BP1L / RFU, BET1 / Fold change vs veh, BET1 / RFU, CNOT2 / Fold change vs veh, CNOT2 / RFU, ZNF268 / Fold change vs veh, ZNF268 / Fold change vs veh, ZNF507 / RFU, DGCR2 / Fold change vs veh, DGCR2 / RFU, WDSUB1 / Fold change vs veh, WDSUB1 / Fold change vs veh, HSP90B1 /// MIR3652 / RFU, ADSS / Fold change vs veh, ADSS / RFU, GK / Fold change vs veh, GK / RFU, ZNF148 / Fold change vs veh, ZNF148 / RFU, TAF9 / Fold change vs veh, TAF9 / RFU, SLC1A5 / Fold change vs veh, SLC1A5 / RFU, SLMO2 / Fold change vs veh, SLMO2 / RFU, ABCC4 / Fold change vs veh, ABCC4 / RFU, LOC101060439 /// RAP1B / Fold change vs veh, LOC101060439 /// RAP1B / RFU, RFX7 / Fold change vs veh, RFX7 / RFU, GTPBP10 / Fold change vs veh, GTPBP10 / RFU, CNEP1R1 / Fold change vs veh, CNEP1R1 / RFU, BIVM-ERCC5 /// ERCC5 / Fold change vs veh, BIVM-ERCC5 /// ERCC5 / RFU, ILF3 / Fold change vs veh, ILF3 / RFU 11762660_at / Fold change /veh 11762660_at / RFU VCAN (11757783_s_at) / Fold change /veh VCAN (11757783_s_at) / RFU DDX43 (11728927_at) / Fold change /veh DDX43 (11728927_at) / RFU KRT8 (11758188_x_at) / Fold change /veh KRT8 (11758188_x_at) / RFU NKD1 (11759106_at) / Fold change /veh NKD1 (11759106_at) / RFU SRD5A1 (11742802_a_at) / Fold change /veh SRD5A1 (11742802_a_at) / RFU TPSAB1 /// TPSB2 (11721975_s_at) / Fold change /veh TPSAB1 /// TPSB2 (11721975_s_at) / RFU GSTM3 (11746129_a_at) / Fold change /veh GSTM3 (11746129_a_at) / RFU IL23R (11737362_x_at) / Fold change /veh IL23R (11737362_x_at) / RFU TMEM51 (11727254_a_at) / Fold change /veh TMEM51 (11727254_a_at) / RFU PIWIL2 (11732686_x_at) / Fold change /veh PIWIL2 (11732686_x_at) / RFU ORM1 (11744905_x_at) / Fold change /veh ORM1 (11744905_x_at) / RFU CCDC152 (11743942_at) / Fold change /veh CCDC152 (11743942_at) / RFU ECM1 (11717891_a_at) / Fold change /veh ECM1 (11717891_a_at) / RFU IL23R (11748794_a_at) / Fold change /veh IL23R (11748794_a_at) / RFU TNFAIP8L3 (11732012_x_at) / Fold change /veh TNFAIP8L3 (11732012_x_at) / RFU MBOAT4 (11741988_at) / Fold change /veh MBOAT4 (11741988_at) / RFU 11764193_at / Fold change /veh 11764193_at / RFU TMEM53 (11763286_at) / Fold change /veh TMEM53 (11763286_at) / RFU MAGEB2 (11727129_at) / Fold change /veh MAGEB2 (11727129_at) / RFU TMEM200A (11744735_a_at) / Fold change /veh TMEM200A (11744735_a_at) / RFU CCDC152 (11751479_a_at) / Fold change /veh CCDC152 (11751479_a_at) / RFU FAM211A (11726209_a_at) / Fold change /veh FAM211A (11726209_a_at) / RFU RGS16 (11746705_a_at) / Fold change /veh RGS16 (11746705_a_at) / RFU VCAN (11755009_s_at) / Fold change /veh VCAN (11755009_s_at) / RFU RHOB (11743442_s_at) / Fold change /veh RHOB (11743442_s_at) / RFU RGS16 (11720943_a_at) / Fold change /veh RGS16 (11720943_a_at) / RFU RGS16 (11720944_at) / Fold change /veh RGS16 (11720944_at) / RFU, VPS4B / Fold change vs veh, VPS4B / RFU, CREB1 / Fold change vs veh, CREB1 / RFU, DNAJC13 / Fold change vs veh, DNAJC13 / RFU, GNAQ / Fold change vs veh, GNAQ / RFU, CDK5R1 / Fold change vs veh, CDK5R1 / RFU, ZRANB3 / Fold change vs veh, ZRANB3 / RFU, CUL4A / Fold change vs veh, CUL4A / RFU, CCNY / Fold change vs veh, CCNY / RFU, UFL1 / Fold change vs veh, UFL1 / RFU, COG3 / Fold change vs veh, COG3 / RFU, DIAPH2 / Fold change vs veh, DIAPH2 / RFU, SKA2 / Fold change vs veh, SKA2 / RFU, AFF3 / Fold change vs veh, AFF3 / RFU, LMF1 / Fold change vs veh, LMF1 / RFU, IPO11 / Fold change vs veh, IPO11 / RFU, DFFB / Fold change vs veh, DFFB / RFU, FOXP1 / Fold change vs veh, FOXP1 / RFU, CARD8 / Fold change vs veh, CARD8 / RFU, STRN3 / Fold change vs veh, STRN3 / RFU, ADK / Fold change vs veh, ADK / RFU, RASSF2 / Fold change vs veh, RASSF2 / RFU, WIPF1 / Fold change vs veh, WIPF1 / RFU, LARP1B / Fold change vs veh, LARP1B / RFU, RASA1 / Fold change vs veh, RASA1 / RFU, RB1 / Fold change vs veh, RB1 / RFU, PPFIA1 / Fold change vs veh, PPFIA1 / RFU, MAT2A / Fold change vs veh, MAT2A / RFU, CCT5 / Fold change vs veh, CCT5 / RFU, WDR92 / Fold change vs veh, WDR92 / RFU, CUX1 / Fold change vs veh, CUX1 / RFU, TTC7A / Fold change vs veh, TTC7A / RFU, TMEM135 / Fold change vs veh, TMEM135 / RFU, DEPTOR / Fold change vs veh, DEPTOR / RFU, CPM / Fold change vs veh, CPM / RFU, DNAJB6 / Fold change vs veh, DNAJB6 / RFU, CACNA2D3 / Fold change vs veh, CACNA2D3 / RFU, DTX4 / Fold change vs veh, DTX4 / RFU, TFCP2 / Fold change vs veh, TFCP2 / RFU, GMCL1 /// GMCL1P1 / Fold change vs veh, GMCL1 /// GMCL1P1 / RFU, AEBP2 / Fold change vs veh, AEBP2 / RFU, SNHG1 /// SNORD22 /// SNORD25 /// SNORD26 /// SNORD27 /// SNORD28 /// SNORD29 /// SNORD31 / Fold change vs veh, SNHG1 /// SNORD22 /// SNORD25 /// SNORD26 /// SNORD27 /// SNORD28 /// SNORD29 /// SNORD31 / Fold change (Aza/veh), C12orf56 (ProbeSet 11735607_a_at) / Fold change (ACY-1035/veh), C12orf56 (ProbeSet 11735607_a_at) / Fold change (Aza/veh), FGFR1OP (ProbeSet 11751329_s_at) / Fold change (ACY-1035/veh), FGFR1OP (ProbeSet 11751329_s_at) / Fold change (Aza/veh), VPS36 (ProbeSet 11739960_a_at) / Fold change (ACY-1035/veh), VPS36 (ProbeSet 11739960_a_at) / RFU SYPL1 (11715823_x_at) / Fold change /veh SYPL1 (11715823_x_at) / RFU IGFBP7 (11715501_s_at) / Fold change /veh IGFBP7 (11715501_s_at) / RFU REEP3 (11722064_at) / Fold change /veh REEP3 (11722064_at) / RFU IGLL1 (11728026_x_at) / Fold change /veh IGLL1 (11728026_x_at): dose or concentration left out as unconfirmed
Conditions: ProbeSet 11747888_a_at; LIST D

Compound: Nc1ncn([C@@H]2O[C@H](CO)[C@@H](O)[C@H]2O)c(=O)n1 [azacitidine]
- RFU, SH3YL1: 53.76 RFU
